SMILES strings stand for the structures. Active and inactive are the calls of the source. No rule for the calls is given here.

One assay has as its target glutathione S-transferase (GST-GSH binding). The experiment in a line: GST–glutathione interaction disruption – biochemical, multiplex beads, flow cytometry, HPSMTB buffer, profiling panel (AID 1324).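 Also: glutathione beads loaded with GST-green fluorescent protein and no fluorescent Bim peptide.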 To be noted: multiplex bead flow cytometry, MCF.
Regarding `CN(/N=C/c1ccncc1)C1=NS(=O)(=O)c2ccccc21`, the EC50 was 3.16 µM.
The same measure, in the same setting: to `COc1ccc(OC)c(-n2c(=O)c3ccccc3c3ccccc3c2=O)c1` belongs “inactive”; to `CCN(CC)c1ccc(NC2=C(Cl)C(=O)c3ccccc3C2=O)cc1`, “inactive”.
The same measure, in the same setting: to `Cc1cccc(N=C2NC(=O)/C(=C/C=C/c3ccco3)S2)c1C` belongs “inactive”; to `CCN=c1scc(C)n1/N=C/c1ccc(O)c(O)c1O`, “inactive”.
As for `Cc1ccc(Nc2nc(-c3c(C)nc4ncccn34)cs2)cc1`, the EC50 entry is “inactive”.
On to `O=C(Nc1cccc(Cl)c1)Nc1ccnc(-c2cccnc2)n1`, for which the EC50 result was “inactive”.

The same assay, now with this note: multiplex bead flow cytometry, MCF, active compounds read high, concentration not given here.
For the molecule `O=C(CNC(=O)c1ccco1)NCC(=O)OCc1ccccc1Br`, the percent span inhibition result is “inactive”.
Same read-out and setting: with `NC(=O)c1c(N)sc2c1CCCCC2` the entry was “inactive”; with `O=C(NCCCN1CCN(CCCNC(=O)c2cc([N+](=O)[O-])ccc2Cl)CC1)c1cc([N+](=O)[O-])ccc1Cl`, “inactive”.
On the same count and under the same terms, with `CCN(CC)C(=O)COC(=O)c1cc(-c2ccco2)nc2ccccc12` the entry was “inactive”; with `Cc1ccc(/C=C2\CCCC3=C2NC(=S)NC3c2ccc(C)cc2)cc1` (stereo not drawn), “inactive”.
On to `CCSc1ncc(Cl)c(C(=O)Nc2sc3c(c2C(=O)NCc2cccnc2)CCCC3)n1`, for which the percent span inhibition result was “inactive”.
The same measure, in the same setting: with `CC(C)(C)OC(=O)N1CCN(C(=O)[C@H](Cc2ccc(O)cc2)n2cc(CCO)nn2)CC1` the entry was “inactive”; with `COc1ccc(/C=C/C(=O)Nc2sc(Cc3ccccc3)c(C)c2C(N)=O)cc1`, “inactive”; with `O=[N+]([O-])c1c(NCCO)cc(Sc2nc3ccccc3s2)c2nonc12`, “inactive”.
For the molecule `O=C(Oc1ccc(-c2cnc3ccccc3n2)cc1)c1cccc([N+](=O)[O-])c1`, the percent span inhibition result was “inactive”.
With `O=C(N/N=C/c1ccncc1)c1cccc(NC(=O)c2ccccc2Cl)c1`, the percent span inhibition result is “inactive”.
The same measure, in the same setting: with `COc1cc(/C=C2\S/C(=N/S(=O)(=O)c3ccccc3)NC2=O)c([N+](=O)[O-])cc1OC` the entry was “inactive”; with `CC(C)(C)C(=O)NC(NC(=S)Nc1ccc(S(N)(=O)=O)cc1)C(Cl)(Cl)Cl` (stereo not drawn), “inactive”; with `O=C(NCc1ccccc1)C(=O)Nc1nc(C23CC4CC(CC(C4)C2)C3)cs1`, “inactive”.
`Cc1cccc(N2C(S)=C(C#N)C(=O)NC2c2cccs2)c1` (stereo not drawn): the percent span inhibition result was “inactive”.
For the molecule `COc1ccc2nc(C)cc(SCC(=O)N/N=C/c3ccc(O)cc3O)c2c1`, the percent span inhibition entry was “inactive”.
Turning to `Cc1ccc(-c2nnc(Cc3ccc(Cl)cc3)o2)cc1`, the percent span inhibition result is “inactive”.
Consider `NC(=O)c1c(NC(=O)C2CCCO2)sc2c1CCCCC2` (stereo not drawn), for which the percent span inhibition result was “inactive”.
Consider `C=CS(=O)c1sc(Cl)c(N2CCOCC2)c1[N+](=O)[O-]` (stereo not drawn), for which the percent span inhibition entry is “inactive”.
In the case of `CCN(CC)c1ccc(-c2nn3c(-c4ccccc4OC)nnc3s2)cc1`, the percent span inhibition result is “inactive”.
For the molecule `Cc1csc(SCCn2c(N3CCN(c4ccccc4)CC3)nc3c2c(=O)[nH]c(=O)n3C)n1`, the percent span inhibition entry was “inactive”.
Same read-out and setting: with `COc1ccccc1Oc1ccc2c(c1)C(=O)N(c1cccc3ncccc13)C2=O` the entry was “inactive”; with `CCN1/C(=C/c2ccc3cc(C)ccc3[n+]2CC)Sc2cc(C)c(C)cc21`, “inactive”; with `O=C(COc1ccccc1)N1CCN(c2ncnc3c2cnn3-c2ccccc2)CC1`, “inactive”.
Regarding `CCOC(=O)c1cc2c(=O)n3cccc(C)c3nc2n(Cc2ccco2)c1=NC(=O)c1ccccc1`, the percent span inhibition entry is “inactive”.
As to `OCCC1CN(Cc2ccc3ncccc3c2)CCN1Cc1ccccc1` (stereo not drawn), the percent span inhibition entry is “inactive”.
Turning to `O=C(Cn1c(-c2ccccc2)noc1=O)N1CCC(Cc2ccccc2)CC1`, the percent span inhibition result is “inactive”.
As for `c1csc(C2=Nn3c(nnc3-c3ccncc3)SC2)c1`, the percent span inhibition result is “inactive”.
Same read-out and setting: with `CCNC(=S)Nc1ccc(OCC)cc1` the entry was “inactive”.
The same measure, in the same setting: to `COC(=O)c1cccc(-n2c(C)cc(C=O)c2C)c1` belongs “inactive”; to `CCOc1cccc(CNc2ccc(O)cc2)c1OCc1ccc(Cl)cc1`, “inactive”.
Still for that read-out and setting: with `O=C(CSc1ccc2nnc(-c3ccncc3)n2n1)Nc1nccs1` the entry was “inactive”.
Regarding `CSc1n[nH]c2nc3c(c(=O)n12)C1(CCCC1)Cc1ccccc1-3`, the percent span inhibition result was “inactive”.
Take `Oc1ccc(NCc2ccccc2OCc2ccccc2)cc1`: the percent span inhibition entry was “inactive”.
Consider `O=C1Nc2ccc([N+](=O)[O-])cc2OC1CCN1CCN(Cc2ccc3c(c2)OCO3)CC1` (stereo not drawn), for which the percent span inhibition result is “inactive”.
On the same count and under the same terms, with `Cc1ccc(C)c(NC(=O)C(=O)NCc2ccccn2)c1` the entry was “inactive”; with `Fc1ccc(Cn2nnnc2C(c2ccc(Cl)cc2)N2CCSCC2)cc1` (stereo not drawn), “inactive”.
For the molecule `CC1(C)CC(=O)C(C=NCCN2CCN(CCc3ccccc3)CC2)=C(O)C1`, the percent span inhibition result is “inactive”.
Same read-out and setting: with `CCN1CCN(c2cc(C)c3cc(NC(=S)N4CCN(c5ccccc5)CC4)ccc3n2)CC1` the entry was “inactive”; with `Cc1ccc(NC2=C(NC(=O)c3ccccc3)C(=O)c3ccccc3C2=O)cc1Cl`, “inactive”.
For `O=C(C1=C(Nc2ccccc2)c2ccccc2S(=O)(=O)N1)c1ccccc1`, the percent span inhibition entry was “inactive”.
Turning to `CC(C)CCN1CCN(Cc2cccc3cccnc23)CC1CCO` (stereo not drawn), the percent span inhibition entry was “inactive”.
Same read-out and setting: to `CC(C)COC(=O)/C(C#N)=C/c1cn(Cc2ccccc2)c2ccccc12` belongs “inactive”.
The same measure, in the same setting: with `O=C(NCc1ccccn1)c1ccc2nc(-c3ccco3)c(-c3ccco3)nc2c1` the entry was “inactive”.
In the case of `Cc1ccc(-n2[nH]c(C)c(/C=N/Nc3ccc([N+](=O)[O-])cc3[N+](=O)[O-])c2=O)cc1C`, the percent span inhibition result is “inactive”.
As for `Cc1ccc(Nc2nc(CSc3nnc(-c4cccnc4)n3-c3ccccc3C)cs2)cc1`, the percent span inhibition entry is “inactive”.
On the same count and under the same terms, with `CCOc1cc(/C=N/NC(=O)c2cccs2)cc([N+](=O)[O-])c1O` the entry was “inactive”; with `CN(CCc1ccccn1)C(=O)CCC1CCCN(C(=O)NC2CCCCC2)C1` (stereo not drawn), “inactive”; with `CCn1c(SCC(=O)Nc2ccccc2-c2ccccc2)nnc1-c1ccoc1C`, “inactive”.
On to `COc1ccccc1-n1c(-c2ccc(Cl)cc2)c[nH]c1=S`, for which the percent span inhibition result is “inactive”.
In the case of `CCCCNC(=O)c1ccc2nc(-c3ccco3)c(-c3ccco3)nc2c1`, the percent span inhibition entry is “inactive”.
On the same count and under the same terms, to `CCN1/C(=C\c2ccc3cc(C)ccc3[n+]2CC)Sc2cc(C)c(C)cc21` belongs “inactive”; to `Cc1cc(-c2csc(N)n2)c(C)n1CCc1ccccc1`, “inactive”; to `Cc1cc(C(=O)NCCCN(C)C)c2ccccc2n1`, “inactive”.
Still for that read-out and setting: with `CCSc1nnc(NC(=O)c2c(-c3ccccc3Cl)noc2C)s1` the entry was “inactive”; with `Cc1ccc(NC(=O)C/C(N)=N/OC(=O)c2ccccc2)cc1`, “inactive”; with `COc1ccc(Cl)cc1-n1c(C)cc(C=O)c1C`, “inactive”.
The same measure, in the same setting: with `CCOc1cc(/C=C2/N=C(C)C(C(=O)OC)=C2O)ccc1O` the entry was “inactive”; with `CCN1/C(=C/c2ccc3cc(C)cc(C)c3[n+]2CC)Sc2cc(C)ccc21`, “inactive”.
As for `Cc1onc(-c2ccccc2)c1C(=O)Nc1nnc(COc2ccc(Cl)cc2)s1`, the percent span inhibition result is “inactive”.
In the case of `COC(=O)c1sc(NC(=O)c2ccc(Cn3cc(Cl)cn3)o2)c(C#N)c1C`, the percent span inhibition result is “inactive”.
Take `Nc1ccc(N2CCCCCC2)cc1`: the percent span inhibition result was “inactive”.
As to `COc1ccc(N2CCN(CCCNC(=O)CCCn3c(=O)[nH]c4ccsc4c3=O)CC2)cc1`, the percent span inhibition result is “inactive”.
Consider `Cc1nnc(Sc2cc(NCCCO)c([N+](=O)[O-])c3nonc23)s1`, for which the percent span inhibition result was “inactive”.
On the same count and under the same terms, with `Cc1cccc(-c2nnc3n2N=C(c2ccccc2)CS3)c1` the entry was “inactive”; with `CCOC(=O)c1[nH]cnc1C(=O)NC(C)C`, “inactive”.
Turning to `CS(=O)(=O)NN1C(=O)c2ccccc2NC1c1cccs1` (stereo not drawn), the percent span inhibition entry is “inactive”.
Same read-out and setting: with `Cc1ccc2cc(C)c(Sc3nnnn3-c3ccccc3)nc2c1` the entry was “inactive”; with `BrC(=C\c1ccccc1)/C=N/N1CCN(c2ccccc2)CC1`, “inactive”; with `CCOc1cc(CNc2ccc(N3CCCCC3)cc2)cc(Br)c1OCC(=O)NC(C)(C)C`, “inactive”.
In the case of `Cc1sc(NC(=O)Cn2cnnn2)nc1-c1ccc(Cl)cc1`, the percent span inhibition result is “inactive”.
On to `Cc1ccc(Nc2nc(C)cs2)cc1`, for which the percent span inhibition result was “inactive”.
As to `COP(=O)(CC(=O)O)c1ccccc1` (stereo not drawn), the percent span inhibition entry was “inactive”.
On to `COc1cc(NC(=S)NCCCO)c(OC)cc1Cl`, for which the percent span inhibition result was “inactive”.
With `COc1cccc2c(SCC(=O)N/N=C/c3ccc(O)c(O)c3)cc(C)nc12`, the percent span inhibition result was “inactive”.
Still for that read-out and setting: to `CCN1CCN(c2cc(C)c3cc(NC(=S)N4CCCCC4)ccc3n2)CC1` belongs “inactive”; to `CCOc1ccc(C(=O)Nc2nnn(CC)n2)cc1`, “inactive”; to `Cc1ccccc1-n1c(SCc2cccc(F)c2)nc2[nH]ncc2c1=O`, “inactive”.
As for `COc1ccc(CC(=O)Nc2ccccc2Oc2ccccc2)cc1`, the percent span inhibition entry is “inactive”.
On the same count and under the same terms, to `COc1ccc(S(=O)(=O)NCCOc2cccc3cccnc23)cc1OC` belongs “inactive”.
For the molecule `Fc1ccccc1/C=C1\CCCC2=C1NC(=S)NC2c1ccccc1F` (stereo not drawn), the percent span inhibition entry was “inactive”.
